Experimental data taken from ChEMBL document CHEMBL3407433, “A high-throughput screen reveals new small-molecule activators and inhibitors of pantothenate kinases” (J Med Chem, 2015).
pEC50, pIC50: −log10 of the molar value.

Tests used:
Pantothenate kinase 1 [1] = target: T1, Pantothenate kinase 1 (Homo sapiens, UniProt Q8TE04); experiment: Inhibition of Pank1beta (unknown origin) by Kinase Glo HTS assay
Pantothenate kinase 3 [2] = target: T2, Pantothenate kinase 3 (Homo sapiens, UniProt Q9H999); experiment: Inhibition of Pank3 (unknown origin) by Kinase Glo HTS assay
Target sequence in this assay (Q9H999 whole entry): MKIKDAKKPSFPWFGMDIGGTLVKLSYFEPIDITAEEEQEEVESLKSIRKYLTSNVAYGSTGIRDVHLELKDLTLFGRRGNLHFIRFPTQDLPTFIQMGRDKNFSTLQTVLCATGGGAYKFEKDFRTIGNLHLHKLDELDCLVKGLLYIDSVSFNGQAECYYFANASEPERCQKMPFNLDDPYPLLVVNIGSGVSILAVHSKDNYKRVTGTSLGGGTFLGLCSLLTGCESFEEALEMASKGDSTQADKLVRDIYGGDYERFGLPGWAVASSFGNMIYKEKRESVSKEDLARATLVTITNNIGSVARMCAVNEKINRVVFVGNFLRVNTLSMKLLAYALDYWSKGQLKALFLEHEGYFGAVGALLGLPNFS

Pantothenate kinase 3 [3] = target: T2, Pantothenate kinase 3; experiment: Activation of Pank3 (unknown origin) by Kinase Glo HTS assay
Target sequence in this assay (Q9H999 whole entry): as above

Pantothenate kinase 1 [4] = target: T1, Pantothenate kinase 1; experiment: Inhibition of purified human Pank1beta using d-[1-14C]pantothenate as substrate after 10 mins by radiochemical enzyme assay
[5] = target: T3, Pantothenate kinase 2, mitochondrial (Homo sapiens, UniProt Q9BZ23); experiment: Inhibition of purified human Pank2 using d-[1-14C]pantothenate as substrate after 10 mins by radiochemical enzyme assay
T3 sequence (Q9BZ23 whole entry): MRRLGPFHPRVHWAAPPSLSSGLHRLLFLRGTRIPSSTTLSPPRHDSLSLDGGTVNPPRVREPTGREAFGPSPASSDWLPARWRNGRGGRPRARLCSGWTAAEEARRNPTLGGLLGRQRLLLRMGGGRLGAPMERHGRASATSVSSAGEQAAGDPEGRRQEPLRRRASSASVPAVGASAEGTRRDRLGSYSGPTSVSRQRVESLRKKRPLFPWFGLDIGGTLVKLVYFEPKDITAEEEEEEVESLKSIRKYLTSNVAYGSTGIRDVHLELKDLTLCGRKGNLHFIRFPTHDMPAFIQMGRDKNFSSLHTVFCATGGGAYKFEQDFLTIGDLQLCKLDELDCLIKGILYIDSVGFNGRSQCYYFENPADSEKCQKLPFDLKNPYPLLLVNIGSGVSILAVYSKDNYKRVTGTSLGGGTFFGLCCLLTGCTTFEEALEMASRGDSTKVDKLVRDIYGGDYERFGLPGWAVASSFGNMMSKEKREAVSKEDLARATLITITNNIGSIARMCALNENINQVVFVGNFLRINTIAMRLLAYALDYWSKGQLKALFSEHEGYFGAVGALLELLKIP

Pantothenate kinase 3 [6] = target: T2, Pantothenate kinase 3; experiment: Inhibition of purified human Pank3 using d-[1-14C]pantothenate as substrate after 10 mins by radiochemical enzyme assay
Target sequence in this assay (Q9H999 whole entry): as the sequence (Q9H999 whole entry) above

Pantothenate kinase 3 [7] = target: T2, Pantothenate kinase 3
Target sequence in this assay (Q9H999 whole entry, looked up): as the sequence (Q9H999 whole entry) above
Description: Binding affinity to purified human Pank3 assessed as thermal stabilization by thermal shift assay in presence of 2 mM ATP/Mg2+

T1 sequence (Q8TE04 whole entry): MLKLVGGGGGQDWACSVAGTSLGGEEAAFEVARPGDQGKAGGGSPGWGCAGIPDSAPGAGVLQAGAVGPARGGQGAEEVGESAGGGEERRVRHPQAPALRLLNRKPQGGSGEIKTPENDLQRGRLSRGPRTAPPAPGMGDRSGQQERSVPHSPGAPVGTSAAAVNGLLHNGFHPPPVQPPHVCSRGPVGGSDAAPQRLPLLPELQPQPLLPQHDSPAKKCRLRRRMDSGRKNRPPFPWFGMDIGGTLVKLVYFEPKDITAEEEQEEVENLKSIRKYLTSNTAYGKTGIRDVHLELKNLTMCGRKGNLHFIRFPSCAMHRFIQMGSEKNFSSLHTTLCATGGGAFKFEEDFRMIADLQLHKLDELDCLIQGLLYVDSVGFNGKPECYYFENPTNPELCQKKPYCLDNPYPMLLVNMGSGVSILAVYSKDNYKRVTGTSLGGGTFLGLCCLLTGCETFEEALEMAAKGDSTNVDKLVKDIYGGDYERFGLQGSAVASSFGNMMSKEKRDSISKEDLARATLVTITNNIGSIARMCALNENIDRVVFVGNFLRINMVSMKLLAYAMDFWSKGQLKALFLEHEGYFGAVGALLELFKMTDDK

Row | Compound | pIC50 (Pantothenate kinase 1 [1]) | pIC50 (Pantothenate kinase 3 [2]) | also measured
1 | Cc1nc2c3cccnc3nn2c(C)c1CCC(=O)Nc1ccccc1 | 6.07 | 4.61 | –
2 | Cc1nc2c3cccnc3nn2c(C)c1CCC(=O)Nc1ccccc1F | 6.26 | 4.87 | –
3 | O=C(Cc1ccc(F)cc1)N1CCN(c2nc3c(Cl)cccc3s2)CC1 | – | – | pEC50 (Pantothenate kinase 3 [3]): 5.82
4 | Cc1ccc(NC(=O)N2CCN(c3ccccc3F)CC2)c(C)c1 | – | – | pEC50 (Pantothenate kinase 3 [3]): 5.62
5 | COc1cccc(CNC(=O)CCc2c(C)nc3c4cccnc4nn3c2C)c1 | < 4.25 | < 4.25 | –
6 | Cc1cccc(NC(=O)CCc2c(C)nc3c4cccnc4nn3c2C)c1 | 5.80 | 5.42 | –
7 | Cc1nc2c3cccnc3nn2c(C)c1CCC(=O)NCC1CCCCC1 | 5.91 | 4.39 | –
8 | Cc1nc2c3cccnc3nn2c(C)c1CCC(=O)Nc1cccc(C(F)(F)F)c1 | 6.72 | 6.08 | –
9 | CC(C)c1ccc(NC(=O)CCc2nc(O)c3c4c(sc3n2)CCC4)cc1 | – | 6.92 | –
10 | CC(C(=O)Nc1cc(Cl)ccc1Cl)N1CCC(C(=O)NCc2ccccc2)CC1 (stereo not drawn) | – | – | pEC50 (Pantothenate kinase 3 [3]): 5.76
11 | COc1ccc(NC(=O)CCc2c(C)nc3c4cccnc4nn3c2C)cc1 | 5.17 | 4.95 | –
12 | Cc1nc2c3cccnc3nn2c(C)c1CCC(=O)NC1CCCCC1 | 4.87 | < 4.25 | –
13 | Cc1nc2c3cccnc3nn2c(C)c1CCC(=O)NCc1ccc(F)cc1 | < 4.25 | < 4.25 | –
14 | CC(=O)Nc1ccc(NC(=O)CCc2c(C)nc3c4cccnc4nn3c2C)cc1 | 6.19 | 6.46 | –
15 | CC(C)CCNC(=O)c1csc(-c2cccc(Cl)c2Cl)n1 | – | 5.61 | –
16 | CSc1ccc(NC(=O)CCc2c(C)nc3c4cccnc4nn3c2C)cc1 | 5.49 | 4.98 | –
17 | CCS(=O)(=O)Nc1ccc(C(=O)NC2CC3CCC2C3)cc1 (stereo not drawn) | – | 6.74 | –
18 | COc1ccc(CNC(=O)CCc2c(C)nc3c4cccnc4nn3c2C)cc1 | 4.83 | 4.59 | –
19 | Cc1ccc(NC(=O)CCc2c(C)nc3c4cccnc4nn3c2C)cc1 | 4.95 | 4.59 | –
20 | CCN(CC)c1ccc(CNc2nn[nH]n2)cc1 | – | – | pEC50 (Pantothenate kinase 3 [3]): 5.46
21 | COC(=O)c1cccc(NC(=O)CCc2c(C)nc3c4cccnc4nn3c2C)c1 | < 4.25 | < 4.25 | –
22 | Cc1nc2c3cccnc3nn2c(C)c1CCC(=O)Nc1ccc(F)cc1 | < 4.25 | < 4.25 | –
23 | Cc1nc2c3cccnc3nn2c(C)c1CCC(=O)NCc1cccc(F)c1 | 4.80 | 5.00 | –
24 | CSc1cccc(NC(=O)CCc2c(C)nc3c4cccnc4nn3c2C)c1 | 6.85 | 6.44 | pIC50 (Pantothenate kinase 1 [4]): 7.15; pIC50 [5]: 7.04; pIC50 (Pantothenate kinase 3 [6]): 7.60; Kapp (Pantothenate kinase 3 [7]): 0.3 µM
25 | COc1cccc(NC(=O)CCc2c(C)nc3c4cccnc4nn3c2C)c1 | 6.55 | 5.79 | –
26 | COc1ccccc1NC(=O)CCc1c(C)nc2c3cccnc3nn2c1C | < 4.25 | < 4.25 | –
27 | Cc1nc2c3cccnc3nn2c(C)c1CCC(=O)N(C)c1ccccc1 | < 4.25 | < 4.25 | –
28 | Cc1nc2c3cccnc3nn2c(C)c1CCC(=O)Nc1cccc(F)c1 | 6.62 | 6.21 | –
